Assay results from US11981669B2, “1,7-naphthyridine derivative and preparation method and use therefor” (CSPC ZHONGQI PHARMACEUTICAL TECHNOLOGY (SHIJIAZHUANG) CO., …, priority 2018, dated 2024).

How the values were obtained:
[1] = biological target: CYP2C9 (Homo sapiens (Human), UniProt P11712); assay: CYP enzyme inhibition assay; type: in vitro ADME
Description: (§1) The compounds of the present disclosure were subjected to the CYP450 enzyme inhibition assay.

[2] = biological target: CYP2C19 (Homo sapiens (Human), UniProt P33261); assay: CYP enzyme inhibition assay; type: in vitro ADME
Chain of CYP2C19 (P33261 whole entry): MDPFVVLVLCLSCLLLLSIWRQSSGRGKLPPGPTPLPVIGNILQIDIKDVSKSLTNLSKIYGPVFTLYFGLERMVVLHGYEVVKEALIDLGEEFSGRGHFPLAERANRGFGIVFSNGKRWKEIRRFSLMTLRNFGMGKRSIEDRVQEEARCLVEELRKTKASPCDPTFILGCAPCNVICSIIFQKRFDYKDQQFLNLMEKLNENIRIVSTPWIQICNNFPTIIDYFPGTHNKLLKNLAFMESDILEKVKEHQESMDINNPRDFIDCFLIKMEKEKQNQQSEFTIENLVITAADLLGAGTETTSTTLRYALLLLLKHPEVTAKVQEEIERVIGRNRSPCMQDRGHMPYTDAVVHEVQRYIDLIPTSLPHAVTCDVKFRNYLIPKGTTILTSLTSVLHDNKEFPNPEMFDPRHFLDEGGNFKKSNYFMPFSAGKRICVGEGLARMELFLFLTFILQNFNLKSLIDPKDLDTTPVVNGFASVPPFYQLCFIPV
Description: as §1

[3] = biological target: CYP2D6 (Homo sapiens (Human), UniProt P10635); assay: CYP enzyme inhibition assay; type: in vitro ADME
Chain of CYP2D6 (P10635 whole entry): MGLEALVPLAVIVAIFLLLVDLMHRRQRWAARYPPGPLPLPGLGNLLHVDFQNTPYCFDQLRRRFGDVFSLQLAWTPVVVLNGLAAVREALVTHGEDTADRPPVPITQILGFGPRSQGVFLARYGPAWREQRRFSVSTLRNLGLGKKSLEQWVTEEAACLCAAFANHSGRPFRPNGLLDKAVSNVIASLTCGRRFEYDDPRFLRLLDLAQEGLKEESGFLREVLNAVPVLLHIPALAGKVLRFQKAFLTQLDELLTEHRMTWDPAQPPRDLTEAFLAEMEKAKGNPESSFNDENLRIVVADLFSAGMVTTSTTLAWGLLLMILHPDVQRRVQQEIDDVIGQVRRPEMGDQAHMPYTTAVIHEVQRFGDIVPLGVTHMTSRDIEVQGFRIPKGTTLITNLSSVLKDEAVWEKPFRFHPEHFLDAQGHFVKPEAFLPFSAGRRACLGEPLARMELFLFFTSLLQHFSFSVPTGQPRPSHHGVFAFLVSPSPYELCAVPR
Description: as §1

[4] = biological target: CYP3A4-M (Homo sapiens (Human), UniProt P08684); assay: CYP enzyme inhibition assay; type: in vitro ADME
Chain of CYP3A4-M (P08684 whole entry): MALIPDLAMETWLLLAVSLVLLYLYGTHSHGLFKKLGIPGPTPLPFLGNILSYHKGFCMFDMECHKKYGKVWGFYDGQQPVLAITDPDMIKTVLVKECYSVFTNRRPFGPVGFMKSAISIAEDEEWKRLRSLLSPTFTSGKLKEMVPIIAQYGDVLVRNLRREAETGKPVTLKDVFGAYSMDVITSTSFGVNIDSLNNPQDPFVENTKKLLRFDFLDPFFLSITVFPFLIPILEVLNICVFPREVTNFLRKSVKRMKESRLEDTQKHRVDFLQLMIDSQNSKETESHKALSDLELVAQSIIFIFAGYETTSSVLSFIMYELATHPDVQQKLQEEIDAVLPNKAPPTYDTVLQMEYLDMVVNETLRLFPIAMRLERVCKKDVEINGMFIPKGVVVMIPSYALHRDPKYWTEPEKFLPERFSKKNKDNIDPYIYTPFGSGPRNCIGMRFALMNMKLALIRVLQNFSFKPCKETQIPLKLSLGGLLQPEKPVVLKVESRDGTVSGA
Description: as §1

[5] = biological target: CYP1A2 (Homo sapiens (Human), UniProt P05177); type: in vitro ADME
Chain of CYP1A2 (P05177 whole entry): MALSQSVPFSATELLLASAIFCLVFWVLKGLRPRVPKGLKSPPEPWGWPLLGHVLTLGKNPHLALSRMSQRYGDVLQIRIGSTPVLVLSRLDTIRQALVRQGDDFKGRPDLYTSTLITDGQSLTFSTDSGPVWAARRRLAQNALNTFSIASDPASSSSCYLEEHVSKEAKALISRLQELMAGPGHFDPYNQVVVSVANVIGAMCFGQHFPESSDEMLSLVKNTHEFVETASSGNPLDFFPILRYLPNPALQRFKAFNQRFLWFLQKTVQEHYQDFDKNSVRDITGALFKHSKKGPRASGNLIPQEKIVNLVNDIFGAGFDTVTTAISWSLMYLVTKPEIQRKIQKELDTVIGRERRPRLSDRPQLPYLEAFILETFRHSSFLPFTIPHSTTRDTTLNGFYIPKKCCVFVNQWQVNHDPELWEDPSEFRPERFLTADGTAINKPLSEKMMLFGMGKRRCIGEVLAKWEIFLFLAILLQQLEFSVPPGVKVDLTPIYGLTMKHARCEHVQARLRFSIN
Description: as §1

[6] = tested on: erythropoietin; assay: Expression of erythropoietin in vivo (plasma EPO ELISA after single oral dose); settings: once; for EPO OD value: plasma 6 hours after administration; for Promotion of expression of erythropoietin in vivo: at 10 mg/kg;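 as to all read-outs here: male C57 mice given compound by mouth, five animals per treatment group, with EPO in plasma measured by ELISA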
Description: (2) 30 c57 mice, male, were divided into 6 groups, 5 mice in each treatment group. […] 6 hours after the administration, blood was taken, and plasma was collected for EPO detection with an ELISA kit (R&D Co.).

[7] = biological target: PHD1 (Homo sapiens (Human), UniProt Q96KS0); assay: PHD enzyme assay (Eu-VBC TR-fluorescence); type: biochemical
Chain of PHD1 (Q96KS0 whole entry): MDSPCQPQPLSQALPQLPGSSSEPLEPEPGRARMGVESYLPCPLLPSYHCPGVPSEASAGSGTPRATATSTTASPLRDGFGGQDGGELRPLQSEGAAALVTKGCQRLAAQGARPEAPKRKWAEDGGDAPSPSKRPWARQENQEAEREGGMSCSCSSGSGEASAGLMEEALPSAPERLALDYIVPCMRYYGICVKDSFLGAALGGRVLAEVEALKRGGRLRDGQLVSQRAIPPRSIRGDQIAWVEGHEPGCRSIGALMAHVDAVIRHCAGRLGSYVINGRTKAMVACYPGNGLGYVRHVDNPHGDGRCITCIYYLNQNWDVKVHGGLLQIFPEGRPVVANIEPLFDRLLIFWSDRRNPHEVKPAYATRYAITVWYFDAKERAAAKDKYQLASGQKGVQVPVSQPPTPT
Description: (§2) VHL/elongin B/elongin C were constructed, expressed and purified, and VHL was labeled. PHD1, PHD2 and PHD3 were constructed, expressed and purified. VBC protein was labeled with DELFIA Eu-Labeling Kit. A NeutrAvidin 96-well plate was blocked after the addition of 200 μL Blocker Casein to each well, followed by incubation for 30 min. Each well was washed 3 times by adding 200 μL of washing buffer each time. A 200 nM HIF-1a 556-574 solution was prepared with washing buffer, and 100 μL of the solution was added to each well, followed by incubation for 60 min. Each well was washed 3 times by adding 200 μL of washing buffer each time. A 1 mM Biotin solution was prepared with Blocker Casein, and 100 μL of the solution was added to each well, followed by incubation for 30 min. Each well was washed 3 times by adding 200 μL of washing buffer each time. A 20× compound solution was prepared with PHD reaction buffer, with the final concentration of DMSO being 1%. PHD solutions were prepared with PHD reaction buffer, and the concentrations of PHD1, 2, and 3 solutions were 10 ng/μL, 5 ng/μL, and 15 ng/μL, respectively. 95 μL of the PHD solution was added to each compound well, followed by the addition of 5 μL of the compound solution, 95 μL of the PHD solution was added to each full active well, followed by the addition of 5 μL of the PHD reaction buffer; and 100 μL of the PHD reaction buffer was added to each blank well. After mixing homogeneously, the wells were incubated for 60 min. Each well was washed 3 times by adding 200 μL of washing buffer each time A 1 ng/μL Eu-VBC solution was prepared with Eu-VBC binding buffer, and 100 μL of the solution was added to each well, followed by incubation for 60 min. Each well was washed 6 times by adding 200 μL DELFIA Wash Concentrate each time. 100 μL DELFIA Enhancement Solution was added to each well. A microplate reader was used to read TR-Fluorescence at Ex340 and Em615. The flurescence of the sample wells was recorded as FLUsample, the flurescence of the full active wells was recorded as FLU100%, and the flurescence of the blank well was recorded as FLU0%.

[8] = biological target: PHD3 (Homo sapiens (Human), UniProt Q9H6Z9); assay: PHD enzyme assay (Eu-VBC TR-fluorescence); type: biochemical
Chain of PHD3 (Q9H6Z9 whole entry): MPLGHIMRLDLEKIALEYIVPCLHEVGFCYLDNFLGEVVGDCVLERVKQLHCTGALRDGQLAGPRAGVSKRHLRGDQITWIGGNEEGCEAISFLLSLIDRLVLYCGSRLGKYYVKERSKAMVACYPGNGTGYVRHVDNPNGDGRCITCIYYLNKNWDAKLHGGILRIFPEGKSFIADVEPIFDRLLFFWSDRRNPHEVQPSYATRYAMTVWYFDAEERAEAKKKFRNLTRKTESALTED
Description: as §2

[9] = biological target: hERG channels (Homo sapiens (Human), UniProt Q12809); assay: cell-based; type: cell-based; settings: for Inhibitory effect on hERG current at the highest test concentration: human, 30 μM
Chain of hERG channels (Q12809 whole entry, the tested form may be a part): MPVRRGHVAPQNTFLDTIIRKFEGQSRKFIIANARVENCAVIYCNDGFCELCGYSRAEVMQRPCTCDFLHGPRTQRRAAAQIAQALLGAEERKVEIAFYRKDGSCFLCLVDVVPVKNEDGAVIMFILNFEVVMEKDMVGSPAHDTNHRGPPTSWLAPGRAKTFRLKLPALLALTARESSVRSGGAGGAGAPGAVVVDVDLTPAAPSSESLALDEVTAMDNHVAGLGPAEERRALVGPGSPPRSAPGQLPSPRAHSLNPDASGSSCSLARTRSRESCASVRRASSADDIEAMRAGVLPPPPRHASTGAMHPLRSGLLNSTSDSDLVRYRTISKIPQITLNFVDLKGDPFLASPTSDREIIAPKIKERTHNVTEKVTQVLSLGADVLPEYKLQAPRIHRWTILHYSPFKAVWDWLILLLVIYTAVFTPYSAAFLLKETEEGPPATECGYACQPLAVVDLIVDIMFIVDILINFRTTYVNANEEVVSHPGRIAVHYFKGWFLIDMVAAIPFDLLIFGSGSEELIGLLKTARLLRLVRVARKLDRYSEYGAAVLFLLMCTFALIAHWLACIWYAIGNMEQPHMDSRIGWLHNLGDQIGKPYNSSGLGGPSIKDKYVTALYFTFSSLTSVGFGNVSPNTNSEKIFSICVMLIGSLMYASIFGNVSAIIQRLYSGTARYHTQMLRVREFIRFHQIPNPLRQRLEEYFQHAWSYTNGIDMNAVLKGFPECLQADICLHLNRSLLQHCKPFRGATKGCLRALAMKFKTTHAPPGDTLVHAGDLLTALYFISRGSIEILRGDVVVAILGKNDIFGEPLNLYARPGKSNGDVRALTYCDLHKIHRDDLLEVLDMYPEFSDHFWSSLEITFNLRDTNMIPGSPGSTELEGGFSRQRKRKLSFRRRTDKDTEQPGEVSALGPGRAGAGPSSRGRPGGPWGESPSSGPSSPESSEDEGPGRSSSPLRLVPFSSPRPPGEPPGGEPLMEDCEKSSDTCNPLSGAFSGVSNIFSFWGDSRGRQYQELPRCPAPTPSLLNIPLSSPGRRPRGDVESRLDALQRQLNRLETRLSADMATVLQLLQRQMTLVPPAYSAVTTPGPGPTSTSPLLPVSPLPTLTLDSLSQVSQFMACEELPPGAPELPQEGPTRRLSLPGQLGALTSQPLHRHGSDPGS
Description: Whole-cell patch clamp technique was used to record hERG current. A cell suspension was added to a 35 mm Petri dish, and the dish was then placed on an inverted microscope stage. After the adherence of cells, they were perfused with extracellular fluid at a flow rate of 1-2 mL/min. A glass microelectrode was drawn by a microelectrode puller in two steps, and the pipette tip resistance was between 2-5 MΩ. After establishing the whole cell recording, the clamp potential was held at −80 mV, followed by depolarization to +60 mV when given voltage stimulation and then repolarization to −50 mV to elicit hERG tail current. All recordings were performed after the current was stable. Extracellular perfusion administration started from a low concentration, staying for 5-10 min at each concentration until the current was stable, and then cells were further perfused with the next concentration.

[10] = tested on: HIF-2α; assay: Expression of HIF-2α protein in Hep3B cells (western blot, grayscale analysis); type: cell-based, Human; settings: for fold induction at 30 µM: Homo sapiens, 2 h, compound at 30 μM, 10 μM and 3 μM, read-out: HIF-2α level of the compound of the present disclosure/HIF-2α level of blank control
Description: A test compound was dissolved in dimethyl sulfoxide into a 100 mM stock solution, and then was diluted with 0.5% FBS-containing DMEM medium into 30 μM, 10 μM and 3 μM for later use. Human liver cancer cells Hep3B were seeded in a six-well plate at a density of 2.25*10^5 cells/well, 2 mL per well. After cultivation overnight, the cells were treated with compounds at different concentrations for 2 h. The proteins were extracted for western blot and further grayscale analysis.

[11] = tested on: Erythropoietin in liver cancer cells Hep3B; assay: Expression of erythropoietin in liver cancer cells Hep3B in vitro (EPO ELISA of supernatant); type: cell-based, Human
Description: The cells were adherent cultured overnight, and after discarding the used medium. In the 96-well culture plate, the cells were washed once with 0.5% FBS-containing DMEM medium. […] 0.5% FBS-containing DMEM medium was used instead of the drug solution as the control well. After incubation in a 37° C., 5% CO2 incubator for 24 h, the supernatant was taken as a sample and frozen at −20° C. for later use. An Elisa kit (abeam) was used to detect EPO in the cell supernatant. A microplate reader was used to detect the OD value at 450/620 nm.

Chain of CYP2C9 (P11712 whole entry): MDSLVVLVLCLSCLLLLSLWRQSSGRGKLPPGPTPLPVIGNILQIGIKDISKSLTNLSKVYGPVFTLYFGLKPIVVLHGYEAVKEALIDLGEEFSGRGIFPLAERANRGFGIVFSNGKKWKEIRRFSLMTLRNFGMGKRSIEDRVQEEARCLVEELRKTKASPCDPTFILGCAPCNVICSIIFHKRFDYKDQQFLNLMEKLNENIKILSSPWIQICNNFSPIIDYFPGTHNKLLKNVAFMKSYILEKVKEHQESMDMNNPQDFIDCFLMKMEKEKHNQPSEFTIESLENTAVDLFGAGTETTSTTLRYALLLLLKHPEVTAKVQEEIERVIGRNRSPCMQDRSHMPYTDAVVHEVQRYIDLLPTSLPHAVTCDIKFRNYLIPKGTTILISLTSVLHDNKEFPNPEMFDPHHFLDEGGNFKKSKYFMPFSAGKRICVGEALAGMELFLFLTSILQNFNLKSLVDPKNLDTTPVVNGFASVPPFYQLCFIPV

IC50 [1]	IC50 [2]	IC50 [3]	IC50 [4]	IC50 [5]	Effect on PHD1 compared with compounds of Comparative Examples 1-3 [7]	IC50 [7]	Effect on PHD3 compared with compounds of Comparative Examples 1-3 [8]	IC50 [8]	SMILES	EPO OD value ([6]; 10 mg/kg)	EPO OD value ([6]; 50 mg/kg)	Promotion of expression of erythropoietin in vivo [6]	IC50 [9]	Inhibitory effect on hERG current at the highest test concentration [9]	HIF-2α protein expression compared with blank control [10]	fold induction at 30 µM [10]	EPO-enhancing effect compared with positive control drug FG4592 [11]
> 50 µM	> 50 µM	> 50 µM	> 50 µM	> 50 µM	better effect	46.9 nM	better effect	72.8 nM	O=C(O)CNC(=O)c1nc(Cl)c2nc(Oc3ccccc3)ccc2c1O [Link-118, 2-(2-phenoxy-5-hydroxy-8-chloro-1,7-naphthyridine-6-formamido) Acetic Acid]	D (D represents EPO OD value>3)	D (D represents EPO OD value>3)	significantly promote the expression of erythropoietin	> 30 µM	far from the IC50 value	higher than that of the blank control	4.5 to 8.5	higher than that of the positive control drug FG4592
> 50 µM	> 50 µM	> 50 µM	> 50 µM	> 50 µM	better effect	40.3 nM	better effect	95.6 nM	O=C(O)CNC(=O)c1nc(Br)c2nc(Oc3ccccc3)ccc2c1O [Link-121, 2-(2-phenoxy-5-hydroxy-8-bromo-1,7-naphthyridine-6-formamido) Acetic Acid]	C (C represents 2<EPO OD value<3)	D (D represents EPO OD value>3)	significantly promote the expression of erythropoietin	> 30 µM	far from the IC50 value	higher than that of the blank control	4.5 to 8.5	higher than that of the positive control drug FG4592
